Experimental data published in US20070232556A1, “Methods and compositions for the treatment of neurological diseases and disorders” (priority 2006, published 2007).

What was measured:
wt microglia = assay: Microglial phagocytosis of aggregated fluorescein-labeled Aβ1-42 (flow cytometry), wt microglia; type: cell-based, mouse; settings: for Aβ1-42 uptake (percent of wt controls): n=6
Protocol: (§1) Microglial Aβ phagocytosis. At DIV 14, microglia were seeded in 6-well plates at 1.5×10^5 cells per well in microglial culture medium. After 2hr seeding, medium was changed with 1.5 ml of serum-free DMEM medium containing penicillin and streptomycin. To make aggregated Aβ for phagocytosis, Aβ was dissolved in 2 mM NaOH and was diluted into 10 μM of stock solution (100×) in PBS followed by incubation at 37° C. for 2 hr and monitored by turbidity. For studying signaling pathways involved in Aβ phagocytosis, some microglia were pre-treated for 1 hr with AH6809 (20 μM), butaprost ([…]), SC51089 (10 μM), PTPE2 (20 μM), forskolin (50 μM), or BIM (10 μM) prior to treatment with aggregated fluorescein labeled AP1-42 (100 nM). After 24hr incubation of Aβ, cells were washed with PBS followed by trypsinization (0.05%) and centrifugation. Cells were then re-suspended in PBS and subjected to flow cytometry. Flow cytometer (FACScan, BD Biosciences, San Jose, Calif.) set at un-gated 10,000 cells per measure was used to analyze Aβ uptake as an indication of Aβ phagocytosis. Data were analyzed using Summit Mo-Flo software (Cytomation, Fort Collins, Colo.). Phagocytosis was presented as percent of mean FITC intensity in wt controls treated with Aβ. Some cells were plated onto chambered slides at 1×10^4 for assessing cellular uptake of Aβ using fluorescent microscope (Nikon TE200).

EP2^−/− microglia = assay: Microglial phagocytosis of aggregated fluorescein-labeled Aβ1-42 (flow cytometry), EP2−/− microglia; type: cell-based, mouse
Protocol: as §1

[1] = BIM at 10 μM, 1 hr pre-treatment, 100 nM fluorescein-Aβ1-42, 24 hr

O=S(=O)(NCCNC/C=C/c1ccc(Br)cc1)c1cccc2cnccc12 [H89]
Effect on Aβ1-42 uptake (wt microglia; PKA inhibitor): did not enhanced Aβ1-42 uptake

O=C(O)CCC/C=C\C[C@H]1C(=O)C[C@@H](O)[C@@H]1/C=C/[C@@H](O)CCc1ccccc1 [PTPE2, 17-phenyl trinor prostaglandin E2]
Effect on Aβ1-42 phagocytosis (wt microglia; PTPE2 at 20 μM): without effect
Effect on Aβ1-42 phagocytosis (EP2^−/− microglia; PTPE2 at 20 μM): without effect

CCCC1([C@H](O)C/C=C/[C@H]2[C@H](O)CC(=O)[C@@H]2CCCCCCC(=O)OC)CCC1 [butaprost]
Aβ1-42 uptake (percent of wt controls) (wt microglia; 1 μM): 98±3%
Aβ1-42 uptake (percent of wt controls) (wt microglia; 10 μM): 104±2%
Aβ1-42 uptake (percent of wt controls) (wt microglia; 50 μM): 92±2%

SC51089
Effect on Aβ1-42 phagocytosis (wt microglia; SC51089 at 10 μM): without effect
Effect on Aβ1-42 phagocytosis (EP2^−/− microglia; SC51089 at 10 μM): without effect

bisindolylmaleimide [BIM]
Aβ1-42 uptake, % of wt basal Aβ1-42 uptake (wt microglia; [1]): 36±4%
Aβ1-42 uptake, % of wt basal Aβ1-42 uptake (EP2^−/− microglia; [1]): 35±4%
